The record followed here is US8956869B2, “Peptide inhibiting differentiation of hematopoietic stem cells or hematopoietic precursor cells and use of same” (Kyushu University, National University Corporation, priority 2009, dated 2015).

Where a SMILES comes first, the peptide text is derived from it. Where no end group is shown, it is not given here. The star is where a group is joined. Myristoyl = CCCCCCCCCCCCCC(=O)*

What is called viability is a read-out of living cells in per cent, often relative to untreated cells.

Type in all cases: cell-based
Data set [1] relates to mouse fetal liver hematopoietic stem cells (CD45(+)c-Kit(+)Sca-1 (+)). The experiment in a line: Hematopoietic colony-forming cell assay. The settings on record: for number of colonies: peptide 30 μg/mL, culturing for 12 days, 1,000 cells/dish. Here is the method:
KS-13 (10 μg/mL or 30 μg/mL) was added to a semisolid medium (Methocult M3434 produced by STEMCELL Technologies) containing cell stimulatory factors (50 ng/mL of rm SCF, 10 ng/mL of rm IL-3, 10 ng/mL of rh IL-6, and 3 U/mL of rh EPO) (rm: recombinant form; rh: recombinant human form), and mouse fetal liver hematopoietic stem cells (CD45(+)c-Kit(+)Sca-1 (+)) (1,000 cells/dish) were cultured. Hematopoietic colony-forming cell assay was performed to evaluate the hematopoietic potential of the cells. Further, for comparison, hematopoietic colony-forming cell assay was performed in a similar manner using a KS-13-free liquid medium (none), and the hematopoietic potential of the cells was evaluated.
Myristoylated KS-13 (30 μg/mL) in which the N-terminal of KS-13 (SEQ ID NO: 1) is myristoylated and control peptide (NQVSIGCPCDGKK: SEQ ID NO: 22) (30 μg/mL) were added to a semisolid medium (Methocult M3434 produced by STEMCELL Technologies) containing cell stimulatory factors (50 ng/mL of rm SCF, 10 ng/mL of rm IL-3, 10 ng/mL of rh IL-6, and 3 U/mL of rh EPO) (rm: recombinant form; rh: recombinant human form) to culture mouse fetal liver hematopoietic stem cells (CD45(+)c— Kit(+)Sca-1(+)) (1,000 cells/dish) therein. Then, hematopoietic colony-forming cell assay was performed to evaluate the hematopoietic potential of the cells.

Data set [2] in a line: Confirmation of induction of cell death (PI staining, live cell ratio). The settings on record: human, liquid-cultured 11 days. Here is the method: (§1) (1-2) In order to confirm induction of cell death, cells that were liquid-cultured for 11 days in each experimental system were stained with PI, and the ratio of live cells was calculated based on the measured number of dead cells.
(§2) The live cell ratio {(the number of live cells/(the number of live cells+the number of dead cells)} was calculated for each experimental system (control, positive control, KS-13 (1 μg/mL), and KS-13 (10 μg/mL)), using cells that were liquid-cultured for 11 days as the target cells. The results are shown below.

The test system of data set [3] is human cord blood CD34(+) hematopoietic stem cell population. Described as above. The settings on record: KS-13 1 and 10 μg/mL, 11 days. Here is the method:
as §1, §2

Compound “NQVSIGCPCDGKK (Control peptide) [reference compound]” showed a number of colonies in data set [1] of 111.1.
As to “myristoylated KS-13: KS-13 (SEQ ID NO: 1) in which the N-terminal is myristoylated (Myristoyl-CQKKDGPCVINGS; cysteine pairing not given here; listed as Homo sapiens)”, the “colony formation versus control peptide” value in data set [1] (30 μg/mL, 12 days) is on record as “inhibited colony formation more than the control”. In data set [1], this compound registered a number of colonies of 93.9.
As to `CC[C@H](C)[C@H](NC(=O)[C@@H](NC(=O)[C@H](CS)NC(=O)[C@@H]1CCCN1C(=O)CNC(=O)[C@H](CC(=O)O)NC(=O)[C@H](CCCCN)NC(=O)[C@H](CCCCN)NC(=O)[C@H](CCC(N)=O)NC(=O)[C@@H](N)CS)C(C)C)C(=O)N[C@@H](CC(N)=O)C(=O)NCC(=O)N[C@@H](CO)C(=O)O` [KS-13, Cys Gln Lys Lys Asp Gly Pro Cys Val Ile Asn Gly Ser] (H-CQKKDGPCVINGS-OH), the viability at 264 h, 1 µg/mL in data set [2] (KS-13 1 μg/mL) came to 97.5%. In addition, the viability at 264 h, 10 µg/mL in data set [2] (KS-13 10 μg/mL) was found to be 97.6%. In addition, the “induction of cell death” value in data set [3] was “does not induce cell death”.
